Assays:
IRAK4 = IRAK4 (Homo sapiens (Human), UniProt Q9NWZ3); assay: IRAK4 Inhibition Assay; type: biochemical; settings: ATP 500 μM; IRAK4 0.6 nM; 60 min room temperature
Protocol: IRAK4 Inhibition Assay The assays were performed in U-bottom 384-well plates. […] The reaction was initiated by the combination of IRAK4 with substrates and test compounds. The reaction mixture was incubated at room temperature for 60 min. and terminated by adding 45 μL of 35 mM EDTA to each sample. The reaction mixture was analyzed on the Caliper LABCHIP® 3000 (Caliper, Hopkinton, MA) by electrophoretic separation of the fluorescent substrate and phosphorylated product. Inhibition data were calculated by comparison to no enzyme control reactions for 100% inhibition and vehicle-only reactions for 0% inhibition.

JAK3 kinase = JAK3 kinase (Homo sapiens (Human), UniProt P52333); assay: JAK3 Homogeneous Time Resolved Fluorescence (HTRF) Assay; type: binding; settings: for IC50: competition binding with fluorescein-labeled ATP competitive probe; for Ratio of JAK3 IC50 to IRAK4 IC50: selectivity for IRAK4 over JAK3
Protocol: JAK3 Homogeneous Time Resolved Fluorescence (HTRF) Assay
A time resolved FRET-based competition binding assay was used to assess test article binding to JAK3 kinase. His-tagged or GST-tagged kinase at a concentration of 1 nM was incubated with 0.2 nM Tb-labeled detection antibody (anti-His or anti-GST), test compound, and fluorescein-labeled ATP competitive probe at a concentration corresponding to the probe's equilibrium dissociation constant for one hour. Fluorescence at 495 nm and 520 nm was measured using an EnVision microplate reader to quantify FRET between Tb-labeled detection antibody and fluorescein-labeled probe. Background subtracted FRET ratios were normalized to the maximum signal obtained in the absence of test compound. These values were converted to a percent inhibition. Percent inhibition was determined for test compounds at 11 concentrations. The IC50, defined as the concentration of the competing test compound needed to reduce specific binding of the probe by 50%, was calculated using the 4 parameter logistic equation to fit the data.

Sequence of IRAK4 (Q9NWZ3 whole entry, species assumed): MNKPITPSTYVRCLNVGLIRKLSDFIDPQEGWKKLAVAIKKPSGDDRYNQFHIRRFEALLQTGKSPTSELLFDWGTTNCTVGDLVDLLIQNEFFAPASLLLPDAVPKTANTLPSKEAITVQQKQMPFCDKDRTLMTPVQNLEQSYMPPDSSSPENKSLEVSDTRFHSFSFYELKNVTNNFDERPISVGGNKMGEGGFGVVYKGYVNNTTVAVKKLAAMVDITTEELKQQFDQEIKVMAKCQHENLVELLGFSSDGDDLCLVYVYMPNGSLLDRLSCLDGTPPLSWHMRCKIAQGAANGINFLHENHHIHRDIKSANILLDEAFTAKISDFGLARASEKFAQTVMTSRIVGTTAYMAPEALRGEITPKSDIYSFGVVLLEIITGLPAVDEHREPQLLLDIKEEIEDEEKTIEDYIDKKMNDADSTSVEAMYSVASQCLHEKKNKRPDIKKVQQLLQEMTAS
Sequence of JAK3 kinase (P52333 whole entry): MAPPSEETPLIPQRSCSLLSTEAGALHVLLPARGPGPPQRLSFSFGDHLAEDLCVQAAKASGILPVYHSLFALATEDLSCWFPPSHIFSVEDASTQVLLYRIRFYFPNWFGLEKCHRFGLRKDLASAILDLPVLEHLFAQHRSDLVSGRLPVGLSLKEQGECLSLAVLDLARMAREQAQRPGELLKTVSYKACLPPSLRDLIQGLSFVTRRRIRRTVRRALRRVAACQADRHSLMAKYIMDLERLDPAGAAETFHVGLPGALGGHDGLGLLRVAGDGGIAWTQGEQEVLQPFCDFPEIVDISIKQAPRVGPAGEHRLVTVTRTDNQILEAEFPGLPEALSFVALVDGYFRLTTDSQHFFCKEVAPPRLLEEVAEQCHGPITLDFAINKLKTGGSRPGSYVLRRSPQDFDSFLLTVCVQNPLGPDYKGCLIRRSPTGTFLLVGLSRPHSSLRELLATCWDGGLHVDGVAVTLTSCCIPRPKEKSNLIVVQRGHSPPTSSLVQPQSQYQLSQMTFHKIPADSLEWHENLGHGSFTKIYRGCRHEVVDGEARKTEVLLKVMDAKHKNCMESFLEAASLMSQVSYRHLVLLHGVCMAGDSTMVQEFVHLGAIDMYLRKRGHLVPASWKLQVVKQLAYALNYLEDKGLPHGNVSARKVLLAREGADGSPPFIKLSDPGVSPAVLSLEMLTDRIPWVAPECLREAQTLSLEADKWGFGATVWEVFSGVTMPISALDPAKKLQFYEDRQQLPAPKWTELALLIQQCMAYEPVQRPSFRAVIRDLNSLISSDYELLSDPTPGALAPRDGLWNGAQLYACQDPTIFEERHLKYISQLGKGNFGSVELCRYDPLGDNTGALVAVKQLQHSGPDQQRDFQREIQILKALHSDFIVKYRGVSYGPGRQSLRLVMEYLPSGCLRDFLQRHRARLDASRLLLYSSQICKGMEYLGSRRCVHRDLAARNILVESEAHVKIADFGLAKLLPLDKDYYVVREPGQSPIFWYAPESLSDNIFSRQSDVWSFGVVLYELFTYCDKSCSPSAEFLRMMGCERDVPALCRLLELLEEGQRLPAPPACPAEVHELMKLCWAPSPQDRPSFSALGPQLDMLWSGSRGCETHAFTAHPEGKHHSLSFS

Compound | IC50 (IRAK4) | IC50 (JAK3 kinase) | Ratio of JAK3 IC50 to IRAK4 IC50 (JAK3 kinase)
Cc1cc(F)ncc1-c1cc2c(NCCC(C)(C)O)c(C(=O)NC[C@@H](F)C(C)(C)O)cnn2c1 [Example 24, (R)—N-(2-fluoro-3-hydroxy-3-methylbutyl)-6-(6-fluoro-4-methylpyridin-3-yl)-4-((3-hydroxy-3-methylbutyl)amino)pyrrolo[1,2-b]pyridazine-3-carboxamide] | 140 nM | > 10000 nM | >71
CC(C)(O)CCNc1c(C(=O)NC[C@@H](F)C(C)(C)O)cnn2cc(-c3cccnc3)cc12 [Example 25, (R)—N-(2-fluoro-3-hydroxy-3-methylbutyl)-4-((3-hydroxy-3-methylbutyl)amino)-6-(pyridin-3-yl) pyrrolo[1,2-b]pyridazine-3-carboxamide] | 280 nM | > 50000 nM | >179
CC(C)Nc1c(C(=O)NC[C@@H](F)C(C)(C)O)cnn2cc(Nc3cc(C#N)ccn3)cc12 [Example 41, (R)-6-((4-cyanopyridin-2-yl)amino)-N-(2-fluoro-3-hydroxy-3-methylbutyl)-4-(isopropylamino)pyrrolo[1,2-b]pyridazine-3-carboxamide] | 620 nM | > 50000 nM | >81
CC(C)Nc1c(C(=O)NC[C@@H](F)C(C)(C)O)cnn2cc(Nc3ccc(C#N)cn3)cc12 [Example 40, (R)-6-((5-cyanopyridin-2-yl)amino)-N-(2-fluoro-3-hydroxy-3-methylbutyl)-4-(isopropylamino) pyrrolo[1,2-b]pyridazine-3-carboxamide] | 240 nM | > 50000 nM | >208
COc1ncccc1-c1cc2ncc(C(=O)NC[C@@H](F)C(C)(C)O)c(NC(C)C)n2n1 [Example 143, (R)—N-(2-fluoro-3-hydroxy-3-methylbutyl)-7-(isopropylamino)-2-(2-methoxypyridin-3-yl)pyrazolo[1,5-a]pyrimidine-6-carboxamide] | 630 nM | > 10000 nM | >16
CC(C)Nc1c(C(=O)NC[C@@H](F)C(C)(C)O)cnc2cc(-c3cccc(C#N)c3)nn12 [Example 133, (R)-2-(3-cyanophenyl)-N-(2-fluoro-3-hydroxy-3-methylbutyl)-7-(isopropylamino)pyrazolo[1,5-a] pyrimidine-6-carboxamide] | 130 nM | > 2000 nM | >15
CC(C)(O)[C@H](F)CNC(=O)c1cnn2cc(-c3cccnc3F)cc2c1NC1CCOCC1 [Example 8, (R)—N-(2-fluoro-3-hydroxy-3-methylbutyl)-6-(2-fluoropyridin-3-yl)-4-((tetrahydro-2H-pyran-4-yl)amino)pyrrolo[1,2-b]pyridazine-3-carboxamide] | 25 nM | > 50000 nM | >2000
CC(C)Nc1c(C(=O)NC[C@@H](F)C(C)(C)O)cnc2cc(C3CC3)nn12 [Example 147, (R)-2-cyclopropyl-N-(2-fluoro-3-hydroxy-3-methylbutyl)-7-(isopropylamino)pyrazolo[1,5-a]pyrimidine-6-carboxamide] | 420 nM | > 50000 nM | >119
CC(=O)N[C@H]1CC[C@H](NC(=O)c2cnn3cc(-c4c(C)ccnc4F)cc3c2NC(C)C)CC1 [Example 66, N-((1r,4r)-4-acetamidocyclohexyl)-6-(2-fluoro-4-methylpyridin-3-yl)-4-(isopropylamino)pyrrolo[1,2-b]pyridazine-3-carboxamide] | 59 nM | 18000 nM | 305
CC(C)(O)[C@H](F)CNC(=O)c1cnc2cc(-c3cccnc3)nn2c1N[C@H]1CCN(c2cnc(F)nc2)C1 [Example 138, N—((R)-2-fluoro-3-hydroxy-3-methylbutyl)-7-(((S)-1-(2-fluoropyrimidin-5-yl)pyrrolidin-3-yl)amino)-2-(pyridin-3-yl) pyrazolo[1,5-a]pyrimidine-6-carboxamide] | 640 nM | > 10000 nM | >16
CC(C)Nc1c(C(=O)NC[C@@H](F)C(C)(C)O)cnn2cc(Nc3ccncn3)cc12 [Example 43, (R)—N-(2-fluoro-3-hydroxy-3-methylbutyl)-4-(isopropylamino)-6-(pyrimidin-4-ylamino) pyrrolo[1,2-b] pyridazine-3-carboxamide] | 81 nM | > 50000 nM | >617
CC(C)(O)[C@H](F)CNC(=O)c1cnc2cc(-c3cccnc3)nn2c1N[C@H]1CCC[C@H]1O [Example 139, N—((R)-2-fluoro-3-hydroxy-3-methylbutyl)-7-(((1S,2R)-2-hydroxycyclopentyl)amino)-2-(pyridin-3-yl)pyrazolo[1,5-a] pyrimidine-6-carboxamide] | 250 nM | > 50000 nM | >200
CC(C)(O)[C@H](F)CNC(=O)c1cnn2cc(-c3cccnc3)cc2c1NC1CCCC1 [Example 30, (R)-4-(cyclopentylamino)-N-(2-fluoro-3-hydroxy-3-methylbutyl)-6-(pyridin-3-yl)pyrrolo[1,2-b]pyridazine-3-carboxamide] | 55 nM | > 10000 nM | >182
CC(C)Nc1c(C(=O)NC[C@@H](F)C(C)(C)O)cnc2cc(-c3ccc(=O)[nH]c3)nn12 [Example 123, (R)—N-(2-fluoro-3-hydroxy-3-methylbutyl)-7-(isopropylamino)-2-(6-oxo-1,6-dihydropyridin-3-yl)pyrazolo[1,5-a]pyrimidine-6-carboxamide] | 4.9 nM | > 50000 nM | >10204
CC(C)(C)CNc1c(C(=O)NC[C@@H](F)C(C)(C)O)cnc2cc(-c3cccnc3)nn12 [Example 155, (R)—N-(2-fluoro-3-hydroxy-3-methylbutyl)-7-(neopentylamino)-2-(pyridin-3-yl)pyrazolo[1,5-a]pyrimidine-6-carboxamide] | 90 nM | > 50000 nM | >556
Cc1cc(F)ncc1-c1cc2c(NC(C)C)c(C(=O)N[C@H]3CC[C@H](C(=O)N4CCOCC4)CC3)cnn2c1 [Example 83, 6-(6-fluoro-4-methylpyridin-3-yl)-4-(isopropylamino)-N-((1r,4r)-4-(morpholine-4-carbonyl)cyclohexyl)pyrrolo[1,2-b]pyridazine-3-carboxamide] | 23 nM | ~49000 nM | ~2130
COc1cc(-c2cc3ncc(C(=O)NC[C@@H](F)C(C)(C)O)c(NC(C)C)n3n2)ccn1 [Example 148, (R)—N-(2-fluoro-3-hydroxy-3-methylbutyl)-7-(isopropylamino)-2-(2-methoxypyridin-4-yl)pyrazolo[1,5-a]pyrimidine-6-carboxamide] | 61 nM | > 10000 nM | >164
CC(C)(O)CCNc1c(C(=O)NC[C@@H](F)C(C)(C)O)cnn2cc(-c3cccc(F)c3)cc12 [Example 26, (R)—N-(2-fluoro-3-hydroxy-3-methylbutyl)-6-(3-fluorophenyl)-4-((3-hydroxy-3-methylbutyl)amino)pyrrolo[1,2-b] pyridazine-3-carboxamide] | 370 nM | > 50000 nM | >135
CC(C)Nc1c(C(=O)N[C@H]2C[C@H](C(C)(C)O)C2)cnn2cc(-c3ccc(F)nc3)nc12 [Example 114, 2-(6-fluoropyridin-3-yl)-N-((1r,3r)-3-(2-hydroxypropan-2-yl)cyclobutyl)-8-(isopropylamino)imidazo[1,2-b]pyridazine-7-carboxamide] | 840 nM | > 50000 nM | >60
CC(C)Nc1c(C(=O)NC[C@@H](F)C(C)(C)O)cnc2cc(-c3ccccn3)nn12 [Example 152, (R)—N-(2-fluoro-3-hydroxy-3-methylbutyl)-7-(isopropylamino)-2-(pyridin-2-yl)pyrazolo[1,5-a]pyrimidine-6-carboxamide] | 160 nM | > 10000 nM | >63
Cc1cc(F)ncc1-c1cc2c(NC(C)C)c(C(=O)NC3CCN(S(C)(=O)=O)CC3)cnn2c1 [Example 86, 6-(6-fluoro-4-methylpyridin-3-yl)-4-(isopropylamino)-N-(1-(methylsulfonyl)piperidin-4-yl)pyrrolo[1,2-b]pyridazine-3-carboxamide] | 46 nM | > 50000 nM | >1087
CC(C)Nc1c(C(=O)NC[C@@H](F)C(C)(C)O)cnc2cc(-n3ccccc3=O)nn12 [Example 151, (R)—N-(2-fluoro-3-hydroxy-3-methylbutyl)-7-(isopropylamino)-2-(2-oxopyridin-1(2H)-yl)pyrazolo[1,5-a]pyrimidine-6-carboxamide] | 580 nM | > 50000 nM | >86
